# Measured values as given in PubChem BioAssay (NCI).
#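 Where inhibition never reached the appropriate level, the endpoint shown equals the highest concentration tested. Otherwise, values were interpolated linearly from a five-concentration, 48-hour dose response in 96-well plates. At the GI50, growth is halved. At the TGI there is no net growth.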
# Tests used:
# Assay in all cases: NCI-60 cell line screen, 48 h
# IGROV1 ovarian = tested on: IGROV1 ovarian
# HCC-2998 colon = tested on: HCC-2998 colon
# SF-295 CNS = tested on: SF-295 CNS
# RXF 393 renal = tested on: RXF 393 renal
# UACC-257 melanoma = tested on: UACC-257 melanoma
# TK-10 renal = tested on: TK-10 renal
# MOLT-4 leukemia = tested on: MOLT-4 leukemia
# SF-268 CNS = tested on: SF-268 CNS
# PC-3 prostate = tested on: PC-3 prostate
# NCI-H23 lung = tested on: NCI-H23 lung
# MALME-3M melanoma = tested on: MALME-3M melanoma
# OVCAR-4 ovarian = tested on: OVCAR-4 ovarian
# SF-539 CNS = tested on: SF-539 CNS
# OVCAR-5 ovarian = tested on: OVCAR-5 ovarian
# HCT-15 colon = tested on: HCT-15 colon
# ACHN renal = tested on: ACHN renal
# HS 578T breast = tested on: HS 578T breast
# OVCAR-3 ovarian = tested on: OVCAR-3 ovarian
# SR leukemia = tested on: SR leukemia
# NCI-H460 lung = tested on: NCI-H460 lung
# SNB-19 CNS = tested on: SNB-19 CNS
# K-562 leukemia = tested on: K-562 leukemia
# DU-145 prostate = tested on: DU-145 prostate
# MCF7 breast = tested on: MCF7 breast
# NCI/ADR-RES ovarian = tested on: NCI/ADR-RES ovarian
# SK-MEL-28 melanoma = tested on: SK-MEL-28 melanoma
# M14 melanoma = tested on: M14 melanoma
# NCI-H522 lung = tested on: NCI-H522 lung
# A549 NSCLC = tested on: A549 NSCLC
# COLO 205 colon = tested on: COLO 205 colon
# OVCAR-8 ovarian = tested on: OVCAR-8 ovarian
# SK-MEL-2 melanoma = tested on: SK-MEL-2 melanoma
# MDA-MB-231 breast = tested on: MDA-MB-231 breast
# 786-0 renal = tested on: 786-0 renal
# UO-31 renal = tested on: UO-31 renal
# HL-60(TB) leukemia = tested on: HL-60(TB) leukemia
# SN12C renal = tested on: SN12C renal
# HOP-92 NSCLC = tested on: HOP-92 NSCLC
# SK-MEL-5 melanoma = tested on: SK-MEL-5 melanoma
# KM12 colon = tested on: KM12 colon
# UACC-62 melanoma = tested on: UACC-62 melanoma
# SK-OV-3 ovarian = tested on: SK-OV-3 ovarian
# U251 CNS = tested on: U251 CNS
# A498 renal = tested on: A498 renal
# T-47D breast = tested on: T-47D breast
# MDA-MB-435 = tested on: MDA-MB-435
# SNB-75 CNS = tested on: SNB-75 CNS
# HOP-62 NSCLC = tested on: HOP-62 NSCLC
# SW-620 colon = tested on: SW-620 colon
# EKVX NSCLC = tested on: EKVX NSCLC
# HT29 colon = tested on: HT29 colon
# LOX IMVI melanoma = tested on: LOX IMVI melanoma
structure (smiles),measurement,setting,value
COC(=O)CCc1n(Cc2ccc3ccccc3c2)c2ccccc2[n+]1Cc1ccc2ccccc2c1,GI50,IGROV1 ovarian,441 nM
same,TGI,IGROV1 ovarian,1900 nM
same,GI50,HCC-2998 colon,910 nM
same,TGI,HCC-2998 colon,2430 nM
same,GI50,SF-295 CNS,1320 nM
same,TGI,SF-295 CNS,2860 nM
same,GI50,RXF 393 renal,874 nM
same,TGI,RXF 393 renal,2230 nM
same,GI50,UACC-257 melanoma,549 nM
same,TGI,UACC-257 melanoma,2370 nM
same,GI50,TK-10 renal,1490 nM
same,TGI,TK-10 renal,2960 nM
same,GI50,MOLT-4 leukemia,1130 nM
same,TGI,MOLT-4 leukemia,2980 nM
same,GI50,SF-268 CNS,1380 nM
same,TGI,SF-268 CNS,2990 nM
same,GI50,PC-3 prostate,402 nM
same,TGI,PC-3 prostate,1740 nM
same,GI50,NCI-H23 lung,583 nM
same,TGI,NCI-H23 lung,2560 nM
same,GI50,MALME-3M melanoma,1050 nM
same,TGI,MALME-3M melanoma,2630 nM
same,GI50,OVCAR-4 ovarian,315 nM
same,TGI,OVCAR-4 ovarian,1890 nM
same,GI50,SF-539 CNS,1070 nM
same,TGI,SF-539 CNS,2450 nM
same,GI50,OVCAR-5 ovarian,1180 nM
same,TGI,OVCAR-5 ovarian,2770 nM
same,GI50,HCT-15 colon,2710 nM
same,TGI,HCT-15 colon,8080 nM
same,GI50,ACHN renal,3710 nM
same,TGI,ACHN renal,13100 nM
same,GI50,HS 578T breast,1430 nM
same,TGI,HS 578T breast,3470 nM
same,GI50,OVCAR-3 ovarian,682 nM
same,TGI,OVCAR-3 ovarian,2150 nM
same,GI50,SR leukemia,403 nM
same,TGI,SR leukemia,2050 nM
same,GI50,NCI-H460 lung,1180 nM
same,TGI,NCI-H460 lung,2700 nM
same,GI50,SNB-19 CNS,582 nM
same,TGI,SNB-19 CNS,1980 nM
same,GI50,K-562 leukemia,379 nM
same,TGI,K-562 leukemia,1630 nM
same,GI50,DU-145 prostate,1450 nM
same,TGI,DU-145 prostate,3340 nM
same,GI50,MCF7 breast,795 nM
same,TGI,MCF7 breast,2340 nM
same,GI50,NCI/ADR-RES ovarian,18700 nM
same,TGI,NCI/ADR-RES ovarian,65100 nM
same,GI50,SK-MEL-28 melanoma,800 nM
same,TGI,SK-MEL-28 melanoma,2460 nM
same,GI50,M14 melanoma,524 nM
same,TGI,M14 melanoma,2040 nM
same,GI50,NCI-H522 lung,440 nM
same,TGI,NCI-H522 lung,1770 nM
same,GI50,A549 NSCLC,2920 nM
same,TGI,A549 NSCLC,11900 nM
same,GI50,COLO 205 colon,614 nM
same,TGI,COLO 205 colon,2210 nM
same,GI50,OVCAR-8 ovarian,1270 nM
same,TGI,OVCAR-8 ovarian,3020 nM
same,GI50,SK-MEL-2 melanoma,1230 nM
same,TGI,SK-MEL-2 melanoma,2720 nM
same,GI50,MDA-MB-231 breast,682 nM
same,TGI,MDA-MB-231 breast,2190 nM
same,GI50,786-0 renal,1140 nM
same,TGI,786-0 renal,2450 nM
same,GI50,UO-31 renal,2250 nM
same,TGI,UO-31 renal,10200 nM
same,GI50,HL-60(TB) leukemia,207 nM
same,TGI,HL-60(TB) leukemia,799 nM
same,GI50,SN12C renal,833 nM
same,TGI,SN12C renal,2190 nM
same,GI50,HOP-92 NSCLC,152 nM
same,TGI,HOP-92 NSCLC,1120 nM
same,GI50,SK-MEL-5 melanoma,415 nM
same,TGI,SK-MEL-5 melanoma,1560 nM
same,GI50,KM12 colon,685 nM
same,TGI,KM12 colon,2120 nM
same,GI50,UACC-62 melanoma,361 nM
same,TGI,UACC-62 melanoma,1590 nM
same,GI50,SK-OV-3 ovarian,1890 nM
same,TGI,SK-OV-3 ovarian,4850 nM
same,GI50,U251 CNS,1040 nM
same,TGI,U251 CNS,2300 nM
same,GI50,A498 renal,1530 nM
same,TGI,A498 renal,3450 nM
same,GI50,T-47D breast,222 nM
same,TGI,T-47D breast,2650 nM
same,GI50,MDA-MB-435,462 nM
same,TGI,MDA-MB-435,1800 nM
same,GI50,SNB-75 CNS,930 nM
same,TGI,SNB-75 CNS,2260 nM
same,GI50,HOP-62 NSCLC,1660 nM
same,TGI,HOP-62 NSCLC,3460 nM
same,GI50,SW-620 colon,1270 nM
same,TGI,SW-620 colon,2850 nM
same,GI50,EKVX NSCLC,1630 nM
same,TGI,EKVX NSCLC,5630 nM
same,GI50,HT29 colon,571 nM
same,TGI,HT29 colon,1970 nM
same,GI50,LOX IMVI melanoma,557 nM
same,TGI,LOX IMVI melanoma,1930 nM
